Test results as given in US20170258817A1, “FOSFESTROL FOR USE IN CURATIVE OR PALLIATIVE TREATMENT OF PROSTATE CANCER” (CHAMAELEO PHARMA BVBA, priority 2012, published 2017).

Experiments:
[1] = tested on: DU-145 hormone-independent prostate cancer cell line; test: in vitro direct cytotoxicity, Cell titer blue viability assay; format: cell-based; details: Homo sapiens; DU-145, 72 hrs incubation
Protocol: (§1) Cells were maintained in vitro in RPMI 1640 containing 10% (v/v) heat inactivated fetal bovine serum (FBS) and 2 mM L-glutamine (growth media) at 37° C. in 5% CO2 and humidified conditions. Cells were harvested, washed, re-suspended into growth medium and counted. The cells were re-suspended into assay media (RPMI 1640+1% (v/v) heat inactivated FBS+ and 2 mM L-glutamine) at 0.5×10^5 cells/ml for DU-145 cells and 1×10^5 for LNCaP cells, and plated into 96-well assay plates (Corning, black-wall plates) and 50 μl/well aliquots.
(§2) Plates were incubated O/N at 37° C. in 5% humidified CO2 prior to addition of the compounds. […] Fosfestrol was dissolved in sterile water at stock concentration of 60 mM. Stocks of all compounds were then serially diluted. Final concentrations to which cells were exposed were: 300, 150, 75, 37.5, 18.75, 9.4, 4.7, 2.3, 1.2 and 0.6 μM. Positive control was Taxotere. Taxotere was diluted in 100% DSMO to give a stock concentration of 1 mM. Stock was serial diluted and final concentration to which cells were exposed was: 1000, 333.3, 111.1, 37.0, 12.3, 4.1, 1.4, 0.5, and 0.2 nM.
(§3) Plates were incubated for 72 hrs at 37° C. in 5% humidified CO-2 after addition of the compounds. Viability of the cells was assessed with the Cell titer blue® (Promega) assay. […] Fluorescence was measured with a Flex II station plate reader. […]

[2] = tested on: LNCaP hormone-dependent prostate cancer cell line; test: as above; format: cell-based; details: Homo sapiens, 72 hrs incubation
Protocol: as §1, §2, §3

prostate cancer = details: 5 mg of DES p.o. per day; cited from earlier work
[3] = buccal administration; cited from earlier work
prostate cancer cells = details: cited from earlier work
[4] = tested on: DU-145 prostate cancer cells; details: through inhibition of microtubule formation; cited from earlier work

Row | Structure (SMILES) | IC50 [1] | IC50 [2] | increase of non-cancer related deaths, mostly cardiovascular (prostate cancer) | DES plasma level, on average [3] | induction of thromboembolic activator (Fibrinogen) [3] | DES concentrations that do not influence prostate cancer cell growth (prostate cancer cells) | minimal concentration of DES to induce some cytotoxic effects (prostate cancer cells) | effect on DU-145 prostate cancer cells [4]
1 | CC(=O)O[C@@]12CO[C@@H]1C[C@H](O)[C@@]1(C)C(=O)[C@H](O)C3=C(C)[C@@H](OC(=O)[C@H](O)[C@@H](NC(=O)OC(C)(C)C)c4ccccc4)C[C@@](O)([C@@H](OC(=O)c4ccccc4)[C@H]21)C3(C)C [Taxotere] | 4 nM | 2 nM | – | – | – | – | – | –
2 | CC/C(=C(/CC)c1ccc(O)cc1)c1ccc(O)cc1 [DES, diethylstilbestrol] | – | – | 36% | 11 ng DES/ml | without inducing a thromboembolic activator (Fibrinogen) | up to 100 ng/ml | 1 µg/mL | cytotoxic effects
